Experimental data taken from patent publication US20260327215A1, “ISOXAZOLIDINES AS RIPK1 INHIBITORS AND USE THEREOF” (GENZYME CORPORATION, priority 2022, published 2026).
pIC50: −log10 of the molar value.

Legend:
U937 cells = test: U937 cell assay: inhibition of TNFa/zVAD-induced cell death (necroptosis), MTS viability; type: cell-based
[1] = biological target: T1, hRIPK1 (aa 1-375) fusion protein (Homo sapiens, UniProt Q13546); test: ADP Glo assay: RIPK1 autophosphorylation (ATP to ADP conversion) inhibition; type: biochemical; conditions: 50 μM ATP; 30 min preincubation, 240 min incubation at room temperature; 1% DMSO
T1 construct: hRIPK1 (aa 1-375) fusion protein
T1 sequence (Q13546 1-375): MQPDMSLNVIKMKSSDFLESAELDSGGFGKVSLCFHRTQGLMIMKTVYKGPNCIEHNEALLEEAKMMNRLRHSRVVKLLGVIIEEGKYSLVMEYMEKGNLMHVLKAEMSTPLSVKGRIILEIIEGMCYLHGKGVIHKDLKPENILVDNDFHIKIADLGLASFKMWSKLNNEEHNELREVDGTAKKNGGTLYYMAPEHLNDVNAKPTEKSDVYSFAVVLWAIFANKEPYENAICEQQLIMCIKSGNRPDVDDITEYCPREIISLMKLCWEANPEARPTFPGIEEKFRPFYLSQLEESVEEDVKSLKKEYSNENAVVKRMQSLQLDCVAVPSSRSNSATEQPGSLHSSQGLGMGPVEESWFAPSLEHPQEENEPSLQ
Description: Evaluation of Receptor-Interacting Protein Kinase 1 Inhibition.
The catalytic activity of RIPK1 was measured by monitoring the conversion of Adenosine triphosphate (ATP) to Adenosine diphosphate (ADP) due to autophosphorylation using an ADP-Glo kinase kit (Promega, catalog no. V9104).
After another 240 minutes incubation at room temperature, 5 μl Promega ADP-Glo reagent I were added to quench the reaction and deplete unconsumed ATP. After an incubation period of 30 minutes, 10 μl Promega ADP-Glo detection reagent II were added resulting in conversion of ADP to ATP, which generates a light-reaction between luciferase and luciferin. Luminescence was quantified after 30 minutes with a Pherastar FS (BMG LABTECH, Ortenberg).
The adjustment was obtained by nonlinear regression using the Levenberg Marquardt algorithm.

SMILES | pIC50 (U937 cells) | pIC50 [1]
COc1cc(N2CCC(C(=O)N3OCC[C@H]3c3cc(F)cc(C#N)c3)CC2)ncn1 [Example 4, (S)-3-fluoro-5-(2-(1-(6-methoxypyrimidin-4-yl)piperidine-4-carbonyl)isoxazolidin-3-yl)benzonitrile] | 7.10 | 7.47
COc1ncnc(N2CCC(C(=O)N3OCC[C@H]3c3cc(F)cc(C#N)c3)CC2)c1F [Example 5, 3-fluoro-5-[(3S)-2-[1-(5-fluoro-6-methoxy-pyrimidin-4-yl)piperidine-4-carbonyl]isoxazolidin-3-yl]benzonitrile] | 8.10 | –
